Assay results as given in patent US11186817B2, “Chemically defined cell culture media additive” (IUCF-HYU (INDUSTRY-UNIVERSITY COOPERATION FOUNDATION …, priority 2014, dated 2021).

System: CHO DG44 cell line
Experiment: Subculture characteristics of CHO DG44 in HY-CDM medium supplemented with THF
Assay type: cell-based, Chinese hamster
Settings: 1.6 mg/L THF, HY-CDM with cod liver oil
Description: 1. Cell line and media: CHO DG44 cell line was used as a DHFR-deficient cell line. The cell line was passaged 80 times or more and suspension adapted in HY-CDM (in-house) media as chemically defined media. The suspension-adapted cell line was used to evaluate the influence of tetrahydrofolate (THF) and dihydrofolate (DHF) and the growth characteristics in commercial chemically defined media. The HY-CDM media were composed of chemically defined components only. Each HY-CDM medium further included a growth factor. HY-CDM media used in Examples 1, 3, and 4 were free of an animal derived lipid mixture, and HY-CDM media used in Example 2 were supplemented with cod liver oil.
2. Cell suspension culture: The cell line was inoculated at a density of 4×10^5 cells/ml and cultured in an Erlenmeyer flask with a 30 ml/125 ml working volume on an orbital shaker at 120 rpm under humidified conditions at 37° C. and 5% CO2. Before inoculation, the cells were centrifuged at 1,000 rpm (×162 g) for 5 min, the supernatant was discarded, and the remaining cells were dispersed into single cells in the heated medium. The cells were passaged three times to minimize the influence of the remaining medium under the experimental conditions. The subcultured cells were evaluated.
3. Density of live cells: The density of live cells was analyzed using a hemocytometer (Neubauer improved bright-line, Marienfeld, Germany), an inverted microscope (CK30, Olympus, Japan), and trypan blue dye exclusion.
A CHO DG44 cell line frozen-stored in an HY-CDM medium supplemented with 1.6 mg/L THF was thawed and subcultured every 2 days. On day 2 after the third passage, a cell density of 21.9±2.2×10^5 cells/ml and a doubling time of 20.3±1.3 h were observed, which were about 28% higher and about 20% more rapid than those of the control (17.1±3.4×10^5 cells/ml and 25.3±3.7 h), respectively (Table 2). The HY-CDM medium included a commercial lipid mixture containing cod liver oil as an animal derived component.

[1] = after the third passage, subcultured every 2 days

tetrahydrofolate [THF]
Cell density higher than control (after the third passage): about 28%
Doubling time more rapid than control (after the third passage): about 20%
Cell density on day 2 [1]: 21.9±2.2 ×10^5 cells/ml
Doubling time [1]: 20.3 ± 1.3 h
Density of live cells on day 2 after culture (number of subcultures 3): 19.2 ×10^5 cells/ml
Doubling time (number of subcultures 3): 21.6 h
Density of live cells on day 2 after culture (number of subcultures 4): 22.3 ×10^5 cells/ml
Doubling time (number of subcultures 4): 21.1 h
Density of live cells on day 2 after culture (number of subcultures 5): 19.1 ×10^5 cells/ml
Doubling time (number of subcultures 5): 18.8 h
Density of live cells on day 2 after culture (number of subcultures 6): 23.3 ×10^5 cells/ml
Doubling time (number of subcultures 6): 20.2 h
Density of live cells on day 2 after culture (number of subcultures 7): 23.5 ×10^5 cells/ml
Doubling time (number of subcultures 7): 21.3 h
Density of live cells on day 2 after culture (number of subcultures 8): 24.1 ×10^5 cells/ml
Doubling time (number of subcultures 8): 18.6 h
